Measurements published in PubChem BioAssay (NCI).
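Tested at 5 concentrations; 48 h exposure; 96-well plates; endpoints linearly interpolated, else capped at highest concentration. TGI is the concentration that stops growth completely.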

Columns and labels:
Assay in all cases: NCI tumour cell line growth inhibition, 48 h
KM20L2 colon = test system: KM20L2 colon
DMS 273 small cell lung = test system: DMS 273 small cell lung
SNB-78 CNS = test system: SNB-78 CNS
HOP-18 NSCLC = test system: HOP-18 NSCLC
M19-MEL melanoma = test system: M19-MEL melanoma
DLD-1 colon = test system: DLD-1 colon
XF 498 CNS = test system: XF 498 CNS
LXFL 529 NSCLC = test system: LXFL 529 NSCLC
DMS 114 small cell lung = test system: DMS 114 small cell lung
RXF-631 renal = test system: RXF-631 renal

Structure (SMILES)	TGI (KM20L2 colon) [µM]	TGI (DMS 273 small cell lung) [µM]	TGI (SNB-78 CNS) [µM]	TGI (HOP-18 NSCLC) [µM]	TGI (M19-MEL melanoma) [µM]	TGI (DLD-1 colon) [µM]	TGI (XF 498 CNS) [µM]	TGI (LXFL 529 NSCLC) [µM]	TGI (DMS 114 small cell lung) [µM]	TGI (RXF-631 renal) [µM]
c1cc2nnsc2s1	> 100	> 100	> 100	> 100	> 100	> 100	> 100	> 100	–	–
CC(=O)Nc1ccc(-c2nnc(SCC(=O)Nc3cccc(Cl)c3)o2)cc1	31.4	62.4	> 100	25.5	> 100	28.3	–	24.8	6.07	–
CC(c1ccc2c(c1)CCC1C2CC2OC23CC=CC(=O)[C@]13C)C1C[C@]2(C)O[C@]2(C)[C@H](O)O1 (stereo not given in full)	> 100	> 100	–	–	> 100	–	> 100	> 100	4.97	–
COc1ccc2c(=O)cc(-c3ccc(OC)c(OC)c3OC)oc2c1	77.3	–	–	–	> 100	> 100	> 100	> 100	> 100	> 100
CC[C@]12C=CCN3CCC4(c5cc([C@@]6(C(=O)OC)CC7CN(CCc8c6[nH]c6ccccc86)C[C@@H]6CCCC[C@H]76)c(OC)cc5N(C)C4[C@](O)(C(=O)OC)C1OC(C)=O)[C@@H]32 (stereo not given in full)	–	–	19.9	–	16.3	13.8	3.79	1.71	< 0.01	–
COc1ccc(N2C(=O)C3c4[nH]c5ccccc5c4C4CC(C)(C)CC(C)(C)C4C3C2=O)cc1 (stereo not given)	> 100	23.8	55.3	36.5	33.7	> 100	36.8	27.7	97.7	–
CN/C=C(\C(=O)c1ccc(OC)c(OC)c1)c1ccc(OC)cc1	–	21.7	–	20.9	34.3	31.7	33.2	30.2	46.8	32.5
O=C1Cc2nc(CO)c(CO)c(CO)c2CO1	> 100	> 100	> 100	> 100	> 100	> 100	–	> 100	> 100	–
